# Laboratory results: BindingDB's records for doi:10.1021/jm980032l (Wake Forest University School of Medicine, 1998)
# Molecular target: Sigma non-opioid intracellular receptor 1 (Cavia porcellus) (UniProt Q60492)
# Assay: Compound tested for binding affinity towards sigma 1 receptor in quinea pig brain membranes using [3H](+)-pentazocine as the radioligand.
# Chain of Sigma non-opioid intracellular receptor 1 (Cavia porcellus) (Q60492 whole entry, looked up): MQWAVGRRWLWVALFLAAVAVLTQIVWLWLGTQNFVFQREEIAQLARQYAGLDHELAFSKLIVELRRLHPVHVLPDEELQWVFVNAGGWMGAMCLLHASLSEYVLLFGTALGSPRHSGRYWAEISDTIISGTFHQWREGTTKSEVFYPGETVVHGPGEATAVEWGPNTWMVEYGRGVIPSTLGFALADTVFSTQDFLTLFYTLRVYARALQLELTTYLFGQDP
row,Ki [nM],Structure (SMILES)
1,> 1000,"O=C(Cc1ccc(O)c(O)c1)NC1CCN(Cc2ccccc2)CC1 [N-(1-Benzyl-piperidin-4-yl)-2-(3,4-dihydroxy-phenyl)-acetamide]"

# Molecular target: Sigma non-opioid intracellular receptor 1 (Cavia porcellus) (UniProt Q60492)
# Assay: Binding affinity against sigma-1 receptor in guinea pig brain membranes using [3H](+)-pentazocine as the radioligand
row,Ki [nM],Structure (SMILES)
1,7.63,"O=C(Cc1cc(F)cc(F)c1)NC1CCN(Cc2ccccc2)CC1 [N-(1-Benzyl-piperidin-4-yl)-2-(3,5-difluoro-phenyl)-acetamide]"
2,27.1,CSc1ccc(CC(=O)NC2CCN(Cc3ccccc3)CC2)cc1 [N-(1-Benzyl-piperidin-4-yl)-2-(4-methylsulfanyl-phenyl)-acetamide]
3,30.1,"COc1ccc(NC(=O)NC2CCN(Cc3ccccc3)CC2)c(OC)c1 [1-(1-Benzyl-piperidin-4-yl)-3-(2,4-dimethoxy-phenyl)-urea]"
4,14.2,"O=C(Cc1ccc([N+](=O)[O-])cc1[N+](=O)[O-])NC1CCN(Cc2ccccc2)CC1 [N-(1-Benzyl-piperidin-4-yl)-2-(2,4-dinitro-phenyl)-acetamide]"
5,3.43,O=C(Cc1ccc(F)cc1)NC1CCN(Cc2ccccc2)CC1 [N-(1-Benzyl-piperidin-4-yl)-2-(4-fluoro-phenyl)-acetamide]
6,43.4,"COc1ccc(OC)c(CC(=O)NC2CCN(Cc3ccccc3)CC2)c1 [N-(1-Benzyl-piperidin-4-yl)-2-(2,5-dimethoxy-phenyl)-acetamide]"
7,23.8,O=C(Cc1ccc(O)c(Cl)c1)NC1CCN(Cc2ccccc2)CC1 [N-(1-Benzyl-piperidin-4-yl)-2-(3-chloro-4-hydroxy-phenyl)-acetamide]
8,2.89,O=C(Cc1ccccc1Br)NC1CCN(Cc2ccccc2)CC1 [N-(1-Benzyl-piperidin-4-yl)-2-(2-bromo-phenyl)-acetamide]
9,352,"COc1ccc(CC(=O)NC2CCN(Cc3ccccc3)CC2)cc1OC [N-(1-Benzyl-piperidin-4-yl)-2-(3,4-dimethoxy-phenyl)-acetamide]"
10,66.4,COc1ccc(CC(=O)NC2CCN(Cc3ccccc3)CC2)cc1 [N-(1-Benzyl-piperidin-4-yl)-2-(4-methoxy-phenyl)-acetamide]
11,32.1,"COc1cccc(C(O)CNC2CCN(Cc3ccccc3)CC2)c1OC (stereo not given) [2-(1-Benzyl-piperidin-4-ylamino)-1-(2,3-dimethoxy-phenyl)-ethanol]"

# The remaining lines, values behind:
row,Structure (SMILES),Ki [nM]
1,COc1cccc(CC(=O)NC2CCN(Cc3ccccc3)CC2)c1 [N-(1-Benzyl-piperidin-4-yl)-2-(3-methoxy-phenyl)-acetamide],10.5
2,"O=C(Cc1ccc2c(c1)OCO2)NC1CCN(Cc2ccccc2)CC1 [2-Benzo[1,3]dioxol-5-yl-N-(1-benzyl-piperidin-4-yl)-acetamide]",7.32
3,"O=C(Cc1c(Cl)cccc1Cl)NC1CCN(Cc2ccccc2)CC1 [N-(1-Benzyl-piperidin-4-yl)-2-(2,6-dichloro-phenyl)-acetamide]",7.28
4,"O=C(Cc1cc(F)ccc1F)NC1CCN(Cc2ccccc2)CC1 [N-(1-Benzyl-piperidin-4-yl)-2-(2,5-difluoro-phenyl)-acetamide]",4.21
5,O=C(Cc1ccccc1C(F)(F)F)NC1CCN(Cc2ccccc2)CC1 [N-(1-Benzyl-piperidin-4-yl)-2-(2-trifluoromethyl-phenyl)-acetamide],8.7
6,O=C(Cc1cccc(O)c1)NC1CCN(Cc2ccccc2)CC1 [N-(1-Benzyl-piperidin-4-yl)-2-(3-hydroxy-phenyl)-acetamide],110
7,"COc1cc(CC(=O)NC2CCN(Cc3ccccc3)CC2)cc(OC)c1 [N-(1-Benzyl-piperidin-4-yl)-2-(3,5-dimethoxy-phenyl)-acetamide]",121
8,CSc1ccc(NC(=O)NC2CCN(Cc3ccccc3)CC2)cc1 [1-(1-Benzyl-piperidin-4-yl)-3-(4-methylsulfanyl-phenyl)-urea],63.9
9,COc1ccccc1CC(=O)NC1CCN(Cc2ccccc2)CC1 [N-(1-Benzyl-piperidin-4-yl)-2-(2-methoxy-phenyl)-acetamide],30.8
10,O=C(Cc1ccc(O)cc1)NC1CCN(Cc2ccccc2)CC1 [N-(1-Benzyl-piperidin-4-yl)-2-(4-hydroxy-phenyl)-acetamide],286
11,O=C(Cc1cccc(F)c1)NC1CCN(Cc2ccccc2)CC1 [N-(1-Benzyl-piperidin-4-yl)-2-(3-fluoro-phenyl)-acetamide],2.45
12,O=C(Cc1ccccc1O)NC1CCN(Cc2ccccc2)CC1 [N-(1-Benzyl-piperidin-4-yl)-2-(2-hydroxy-phenyl)-acetamide],18.8
13,"O=C(Cc1ccc(Cl)c(Cl)c1)NC1CCN(Cc2ccccc2)CC1 [N-(1-Benzyl-piperidin-4-yl)-2-(3,4-dichloro-phenyl)-acetamide]",5.22
14,"O=C(Cc1ccc(F)cc1F)NC1CCN(Cc2ccccc2)CC1 [N-(1-Benzyl-piperidin-4-yl)-2-(2,4-difluoro-phenyl)-acetamide]",3.87
15,"O=C(Cc1ccc(Cl)cc1Cl)NC1CCN(Cc2ccccc2)CC1 [N-(1-Benzyl-piperidin-4-yl)-2-(2,4-dichloro-phenyl)-acetamide]",9.66
16,"O=C(Cc1ccc(F)c(F)c1)NC1CCN(Cc2ccccc2)CC1 [N-(1-Benzyl-piperidin-4-yl)-2-(3,4-difluoro-phenyl)-acetamide]",3.17
17,O=C(Cc1cccc([N+](=O)[O-])c1)NC1CCN(Cc2ccccc2)CC1 [N-(1-Benzyl-piperidin-4-yl)-2-(3-nitro-phenyl)-acetamide],4.56
18,O=C(Cc1ccccc1[N+](=O)[O-])NC1CCN(Cc2ccccc2)CC1 [N-(1-Benzyl-piperidin-4-yl)-2-(2-nitro-phenyl)-acetamide],26.9
19,O=C(Cc1cccc(C(F)(F)F)c1)NC1CCN(Cc2ccccc2)CC1 [N-(1-Benzyl-piperidin-4-yl)-2-(3-trifluoromethyl-phenyl)-acetamide],3.92
20,O=C(Cc1ccc(C(F)(F)F)cc1)NC1CCN(Cc2ccccc2)CC1 [N-(1-Benzyl-piperidin-4-yl)-2-(4-trifluoromethyl-phenyl)-acetamide],9.84
21,"COc1cc(CC(=O)NC2CCN(Cc3ccccc3)CC2)cc(OC)c1OC [N-(1-Benzyl-piperidin-4-yl)-2-(3,4,5-trimethoxy-phenyl)-acetamide]",80
22,"O=C(Cc1c(F)cccc1F)NC1CCN(Cc2ccccc2)CC1 [N-(1-Benzyl-piperidin-4-yl)-2-(2,6-difluoro-phenyl)-acetamide]",5.8
23,O=C(Cc1ccc([N+](=O)[O-])cc1)NC1CCN(Cc2ccccc2)CC1 [N-(1-Benzyl-piperidin-4-yl)-2-(4-nitro-phenyl)-acetamide],18
24,O=C(Cc1ccccc1Cl)NC1CCN(Cc2ccccc2)CC1 [N-(1-Benzyl-piperidin-4-yl)-2-(2-chloro-phenyl)-acetamide],3.08
25,Nc1ccc(CC(=O)NC2CCN(Cc3ccccc3)CC2)cc1 [2-(4-Amino-phenyl)-N-(1-benzyl-piperidin-4-yl)-acetamide],470
26,O=C(Cc1cccc(Cl)c1)NC1CCN(Cc2ccccc2)CC1 [N-(1-Benzyl-piperidin-4-yl)-2-(3-chloro-phenyl)-acetamide],1.4
27,O=C(Cc1ccc(Cl)cc1)NC1CCN(Cc2ccccc2)CC1 [N-(1-Benzyl-piperidin-4-yl)-2-(4-chloro-phenyl)-acetamide],6.46
28,O=C(Cc1cccc(Br)c1)NC1CCN(Cc2ccccc2)CC1 [N-(1-Benzyl-piperidin-4-yl)-2-(3-bromo-phenyl)-acetamide],0.87
